Data reported in patent publication US20230310428A1, “EGFR INHIBITOR AND PREPARATION METHOD AND USE THEREOF” (HONGYUN BIOTECH CO., LTD., priority 2020, published 2023).
Read-outs that look alike come from different tables or passages of the source.

Tests used:
Experiment in all cases: Growth inhibitory activity of compounds on BaF3 cell lines stably transfected with kinase (MTS, 48 h)
Assay type in all cases: cell-based
[1] = target: T1, various mutants of kinase EGFR (BaF3 cell lines stably transfected with kinase) (Homo sapiens, UniProt P00533, T790M, form not given)
T1 construct: other: BaF3 cells stably transfected with EGFR Δ19Del/T790M; MTS, 48 h; other: BaF3 cell line stably transfected with EGFR Δ19Del/T790M; MTS, 48
In short: (§1)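 Transfected cells received compound (max 10 µM, 8 concentrations) for 48 h; MTS readout at 490 nm yielded IC50.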

[2] = target: T2, various mutants of kinase EGFR (BaF3 cell lines stably transfected with kinase) (Homo sapiens, UniProt P00533, L858R/T790M)
T2 construct: expressed in transfected cells; host or cells: BaF3
T2 sequence (P00533 25-1210 T790M/L858R): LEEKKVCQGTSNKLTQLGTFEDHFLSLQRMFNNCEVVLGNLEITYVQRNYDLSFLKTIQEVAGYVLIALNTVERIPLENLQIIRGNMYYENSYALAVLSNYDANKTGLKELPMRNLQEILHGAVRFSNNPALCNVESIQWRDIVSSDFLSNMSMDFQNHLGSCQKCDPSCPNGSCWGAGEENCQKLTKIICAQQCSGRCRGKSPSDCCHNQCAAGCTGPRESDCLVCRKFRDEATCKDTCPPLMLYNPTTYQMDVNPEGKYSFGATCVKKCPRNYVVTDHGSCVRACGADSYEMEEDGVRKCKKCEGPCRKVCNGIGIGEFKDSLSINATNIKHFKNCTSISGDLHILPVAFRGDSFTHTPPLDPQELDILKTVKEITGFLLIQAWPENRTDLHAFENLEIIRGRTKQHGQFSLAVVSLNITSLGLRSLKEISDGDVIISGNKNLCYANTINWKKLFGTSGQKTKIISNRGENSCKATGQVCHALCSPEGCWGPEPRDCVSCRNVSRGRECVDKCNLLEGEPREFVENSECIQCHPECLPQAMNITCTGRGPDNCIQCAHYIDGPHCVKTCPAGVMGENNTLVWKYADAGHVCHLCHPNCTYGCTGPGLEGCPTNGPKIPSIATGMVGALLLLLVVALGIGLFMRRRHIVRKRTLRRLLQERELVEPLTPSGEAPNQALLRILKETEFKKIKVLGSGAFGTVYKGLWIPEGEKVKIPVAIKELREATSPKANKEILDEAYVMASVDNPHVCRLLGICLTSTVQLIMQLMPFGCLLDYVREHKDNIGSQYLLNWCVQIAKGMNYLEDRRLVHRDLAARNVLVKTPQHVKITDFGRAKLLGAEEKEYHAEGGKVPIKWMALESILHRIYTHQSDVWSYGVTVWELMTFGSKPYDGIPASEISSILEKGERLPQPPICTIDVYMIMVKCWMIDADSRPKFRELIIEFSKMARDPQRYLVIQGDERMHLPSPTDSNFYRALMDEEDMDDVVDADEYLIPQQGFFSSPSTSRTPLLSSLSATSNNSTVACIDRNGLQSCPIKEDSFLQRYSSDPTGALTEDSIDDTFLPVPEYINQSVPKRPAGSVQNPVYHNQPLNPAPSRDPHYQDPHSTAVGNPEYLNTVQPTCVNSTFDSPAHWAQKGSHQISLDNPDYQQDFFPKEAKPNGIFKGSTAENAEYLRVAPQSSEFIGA
In short: as §1

[3] = target: T3, various mutants of kinase EGFR (BaF3 cell lines stably transfected with kinase) (Homo sapiens, UniProt P00533, T790M/C797S, form not given)
T3 construct: other: BaF3 cells stably transfected with EGFR Δ19Del/T790M/C797S; MTS, 48; other: BaF3 cell line stably transfected with EGFR Δ19Del/T790M/C7
T3 sequence (P00533 with tags, fused parts or gaps DEL746-750/T790M/C797S, form open): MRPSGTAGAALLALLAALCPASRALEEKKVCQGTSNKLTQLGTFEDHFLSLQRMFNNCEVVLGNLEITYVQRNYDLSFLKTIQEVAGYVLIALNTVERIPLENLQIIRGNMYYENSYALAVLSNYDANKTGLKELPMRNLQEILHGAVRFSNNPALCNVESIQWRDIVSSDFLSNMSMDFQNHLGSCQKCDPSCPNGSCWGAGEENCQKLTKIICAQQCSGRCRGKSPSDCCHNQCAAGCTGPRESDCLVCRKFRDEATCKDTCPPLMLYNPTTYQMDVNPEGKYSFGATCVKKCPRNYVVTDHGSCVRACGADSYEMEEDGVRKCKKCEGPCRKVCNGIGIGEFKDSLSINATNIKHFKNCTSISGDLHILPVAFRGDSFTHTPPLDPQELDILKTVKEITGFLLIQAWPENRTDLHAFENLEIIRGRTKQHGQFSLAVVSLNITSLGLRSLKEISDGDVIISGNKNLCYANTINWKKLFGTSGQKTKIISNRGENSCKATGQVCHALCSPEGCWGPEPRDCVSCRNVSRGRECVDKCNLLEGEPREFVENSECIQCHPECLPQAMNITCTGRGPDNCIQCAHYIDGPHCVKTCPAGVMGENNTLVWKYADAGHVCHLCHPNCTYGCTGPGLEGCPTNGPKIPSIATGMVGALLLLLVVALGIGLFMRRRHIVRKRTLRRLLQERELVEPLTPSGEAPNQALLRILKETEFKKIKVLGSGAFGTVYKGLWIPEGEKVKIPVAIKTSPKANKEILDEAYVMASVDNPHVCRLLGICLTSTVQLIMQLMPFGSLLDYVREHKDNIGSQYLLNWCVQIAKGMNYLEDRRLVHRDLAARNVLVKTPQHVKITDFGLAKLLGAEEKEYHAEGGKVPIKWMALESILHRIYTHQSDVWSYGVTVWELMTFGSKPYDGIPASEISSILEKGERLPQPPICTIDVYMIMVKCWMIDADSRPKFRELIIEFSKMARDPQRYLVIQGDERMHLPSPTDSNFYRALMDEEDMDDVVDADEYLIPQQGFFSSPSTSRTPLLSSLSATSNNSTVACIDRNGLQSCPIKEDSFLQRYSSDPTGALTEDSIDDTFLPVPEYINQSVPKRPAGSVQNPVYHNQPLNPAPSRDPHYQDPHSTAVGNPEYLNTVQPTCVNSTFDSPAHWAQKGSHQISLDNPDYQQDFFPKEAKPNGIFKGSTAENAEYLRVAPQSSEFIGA
In short: as §1

[4] = target: T4, various mutants of kinase EGFR (BaF3 cell lines stably transfected with kinase) (Homo sapiens, UniProt P00533)
T4 construct: other: BaF3 cells stably transfected with EGFR Δ19Del; MTS, 48 h; other: BaF3 cell line stably transfected with EGFR Δ19Del
In short: as §1

[5] = target: T5, various mutants of kinase EGFR (BaF3 cell lines stably transfected with kinase) (Homo sapiens, UniProt P00533, L858R)
T5 construct: expressed in transfected cells; host or cells: BaF3
T5 sequence (P00533 25-1210 L858R): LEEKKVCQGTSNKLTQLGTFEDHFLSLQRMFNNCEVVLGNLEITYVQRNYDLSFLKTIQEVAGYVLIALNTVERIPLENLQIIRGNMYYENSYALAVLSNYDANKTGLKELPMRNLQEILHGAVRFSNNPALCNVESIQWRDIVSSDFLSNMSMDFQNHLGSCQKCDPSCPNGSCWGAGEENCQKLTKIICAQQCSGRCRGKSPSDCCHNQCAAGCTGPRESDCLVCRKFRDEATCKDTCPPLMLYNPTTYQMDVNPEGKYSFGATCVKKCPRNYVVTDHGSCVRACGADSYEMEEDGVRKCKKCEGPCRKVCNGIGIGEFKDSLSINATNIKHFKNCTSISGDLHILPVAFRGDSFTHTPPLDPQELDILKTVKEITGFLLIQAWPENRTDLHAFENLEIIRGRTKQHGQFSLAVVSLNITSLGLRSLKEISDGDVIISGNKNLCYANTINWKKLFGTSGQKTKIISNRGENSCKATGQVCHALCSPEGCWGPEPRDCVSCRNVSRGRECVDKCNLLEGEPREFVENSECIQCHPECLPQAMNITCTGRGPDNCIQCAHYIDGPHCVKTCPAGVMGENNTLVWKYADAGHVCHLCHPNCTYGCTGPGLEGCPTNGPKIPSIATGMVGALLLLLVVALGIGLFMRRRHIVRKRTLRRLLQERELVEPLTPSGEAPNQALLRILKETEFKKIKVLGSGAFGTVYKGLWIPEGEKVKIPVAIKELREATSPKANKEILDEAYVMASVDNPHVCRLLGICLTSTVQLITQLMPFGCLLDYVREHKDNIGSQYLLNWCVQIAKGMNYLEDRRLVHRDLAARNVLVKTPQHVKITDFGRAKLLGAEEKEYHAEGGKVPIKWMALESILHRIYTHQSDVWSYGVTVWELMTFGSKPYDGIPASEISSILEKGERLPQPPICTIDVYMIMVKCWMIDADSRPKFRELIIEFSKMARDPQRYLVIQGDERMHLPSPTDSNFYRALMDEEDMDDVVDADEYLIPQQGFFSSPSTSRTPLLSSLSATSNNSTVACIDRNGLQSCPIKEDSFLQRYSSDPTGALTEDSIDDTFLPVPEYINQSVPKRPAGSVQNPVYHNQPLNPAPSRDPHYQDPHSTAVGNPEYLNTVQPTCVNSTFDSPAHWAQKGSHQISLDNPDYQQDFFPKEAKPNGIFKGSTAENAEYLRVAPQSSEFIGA
In short: as §1

[6] = target: T6, various mutants of kinase EGFR (BaF3 cell lines stably transfected with kinase) (Homo sapiens, UniProt P00533, C797S/L858R/T790M)
T6 construct: expressed in transfected cells; host or cells: BaF3
T6 sequence (P00533 25-1210 T790M/C797S/L858R): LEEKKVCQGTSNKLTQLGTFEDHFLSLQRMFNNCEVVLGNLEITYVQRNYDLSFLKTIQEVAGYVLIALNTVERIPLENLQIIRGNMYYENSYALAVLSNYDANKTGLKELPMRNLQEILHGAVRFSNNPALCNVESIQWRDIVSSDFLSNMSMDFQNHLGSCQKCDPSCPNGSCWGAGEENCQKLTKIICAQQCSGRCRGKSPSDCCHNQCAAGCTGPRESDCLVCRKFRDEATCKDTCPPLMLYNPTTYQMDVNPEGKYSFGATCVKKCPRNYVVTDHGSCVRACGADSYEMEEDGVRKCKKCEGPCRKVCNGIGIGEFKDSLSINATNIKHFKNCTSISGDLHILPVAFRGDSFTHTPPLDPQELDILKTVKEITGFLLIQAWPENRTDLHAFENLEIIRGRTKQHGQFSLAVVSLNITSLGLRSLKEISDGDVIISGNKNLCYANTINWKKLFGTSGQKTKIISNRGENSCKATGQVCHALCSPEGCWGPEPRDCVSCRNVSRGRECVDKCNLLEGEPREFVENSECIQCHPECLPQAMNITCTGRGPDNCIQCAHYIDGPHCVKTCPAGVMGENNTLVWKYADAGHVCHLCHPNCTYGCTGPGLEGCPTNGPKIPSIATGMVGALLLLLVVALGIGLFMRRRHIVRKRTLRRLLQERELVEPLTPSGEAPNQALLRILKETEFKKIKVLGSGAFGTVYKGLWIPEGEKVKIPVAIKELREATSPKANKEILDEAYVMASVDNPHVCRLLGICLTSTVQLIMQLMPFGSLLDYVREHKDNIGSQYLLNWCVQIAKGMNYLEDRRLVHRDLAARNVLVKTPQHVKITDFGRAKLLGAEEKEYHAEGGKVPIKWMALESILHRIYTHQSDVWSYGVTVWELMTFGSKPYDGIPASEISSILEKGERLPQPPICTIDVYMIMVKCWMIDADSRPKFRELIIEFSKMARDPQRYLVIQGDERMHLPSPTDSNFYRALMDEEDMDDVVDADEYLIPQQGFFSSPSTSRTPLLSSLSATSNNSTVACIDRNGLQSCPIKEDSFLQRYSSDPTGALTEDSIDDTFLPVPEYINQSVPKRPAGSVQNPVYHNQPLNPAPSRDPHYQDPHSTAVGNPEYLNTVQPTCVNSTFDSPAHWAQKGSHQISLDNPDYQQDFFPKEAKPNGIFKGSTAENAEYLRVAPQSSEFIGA
In short: as §1

[7] = BaF3 cell line stably transfected with EGFR Δ19Del/T790M, read-out: Δ19Del/ T790M growth inhibitory activity IC50
[8] = BaF3 cell line stably transfected with EGFR L858R/T790M, read-out: L858R/ T790M growth inhibitory activity IC50
[9] = BaF3 cell line stably transfected with EGFR Δ19Del/T790M/C797S, read-out: Δ19Del/T790M/ C797S growth inhibitory activity IC50
[10] = BaF3 cell line stably transfected with EGFR Δ19Del, read-out: Δ19Del growth inhibitory activity IC50
[11] = BaF3 cell line stably transfected with EGFR L858R, read-out: L858R growth inhibitory activity IC50
[12] = BaF3 cell line stably transfected with EGFR L858R/T790M/C797S, read-out: L858R/T790M/ C797S growth inhibitory activity IC50
[13] = BaF3 cells stably transfected with EGFR Δ19Del/T790M, read-out: IC50, growth inhibition, Δ19Del/T790M
[14] = BaF3 cells stably transfected with EGFR L858R/T790M, read-out: IC50, growth inhibition, L858R/T790M
[15] = BaF3 cells stably transfected with EGFR Δ19Del/T790M/C797S, read-out: IC50, growth inhibition, Δ19Del/T790M/C797S
[16] = BaF3 cells stably transfected with EGFR Δ19Del, read-out: IC50, growth inhibition, Δ19Del
[17] = BaF3 cells stably transfected with EGFR L858R, read-out: IC50, growth inhibition, L858R
[18] = BaF3 cells stably transfected with EGFR L858R/T790M/C797S, read-out: IC50, growth inhibition, L858R/T790M/C797S

SMILES | IC50 [1, 7] | IC50 [2, 8] | IC50 [3, 9] | IC50 [4, 10] | IC50 [5, 11] | IC50 [6, 12] | IC50 [1, 13] | IC50 [2, 14] | IC50 [3, 15] | IC50 [4, 16] | IC50 [5, 17] | IC50 [6, 18]
CCc1cnc(Nc2ccc(N3CCC(N4CCN(C)CC4)CC3)c(F)c2F)nc1Nc1ccc2nccnc2c1N(C)S(C)(=O)=O [Compound I-348] | ≤ 50 nM | 50 to 500 nM | 50 to 500 nM | 50 to 500 nM | 50 to 500 nM | 50 to 500 nM |  |  |  |  |  | 
COc1cc(N2CCC(N3CCN(C)CC3)CC2)c(C)cc1Nc1nc(Nc2ccc3nccnc3c2N(C)S(C)(=O)=O)c2[nH]ccc2n1 [II-1-19] | 500 to 2500 nM | 50 to 500 nM | 500 to 2500 nM | 500 to 2500 nM | 500 to 2500 nM | 500 to 2500 nM |  |  |  |  |  | 
C=Cc1cc(Nc2ncc(Cl)c(Nc3ccc4nccnc4c3N(CC)S(C)(=O)=O)n2)c(OC(F)(F)F)cc1N1CCC(N2CCN(C)CC2)CC1 [Compound I-228] |  |  |  |  |  |  | ≤ 50 nM | ≤ 50 nM | ≤ 50 nM | 50 to 500 nM | 50 to 500 nM | ≤ 50 nM
CCS(=O)(=O)N(C)c1c(Nc2nc(Nc3cc(CC4CC4)c(N4CCC(N5CCN(C)CC5)CC4)cc3OC)ncc2Cl)ccc2nccnc12 [Compound I-235] |  |  |  |  |  |  | ≤ 50 nM | ≤ 50 nM | ≤ 50 nM | 50 to 500 nM | 50 to 500 nM | 50 to 500 nM
CN(c1c(Nc2nc(Nc3ccc(S(=O)(=O)NC4CC4)cc3)ncc2Br)ccc2nccnc12)S(C)(=O)=O [Compound I-50] |  |  |  |  |  |  | 50 to 500 nM | ≤ 50 nM | 500 to 2500 nM | 50 to 500 nM | 50 to 500 nM | 50 to 500 nM
CCc1cc(Nc2ncc(F)c(Nc3ccc4nccnc4c3N(C)S(=O)(=O)C3CC3)n2)c(OC(F)(F)F)cc1N1CCC(N2CCN(C)CC2)CC1 [Compound I-250] |  |  |  |  |  |  | 500 to 2500 nM | 50 to 500 nM | 50 to 500 nM | 50 to 500 nM | 50 to 500 nM | 500 to 2500 nM
COc1cc(N2CCC(N(C)C)C2)c(C)cc1Nc1ncc([N+](=O)[O-])c(Nc2ccc3nccnc3c2N(C)S(C)(=O)=O)n1 (stereo not drawn) [Compound I-195] |  |  |  |  |  |  | 50 to 500 nM | 50 to 500 nM | ≤ 50 nM | 50 to 500 nM | 50 to 500 nM | 50 to 500 nM
CCc1cc(Nc2ncc(Br)c(Nc3ccc4nccnc4c3N(C)S(=O)(=O)C(C)C)n2)c(OC)cc1N1CCC(N(C)C)C1 (stereo not drawn) [Compound I-138] |  |  |  |  |  |  | 50 to 500 nM | ≤ 50 nM | ≤ 50 nM | 50 to 500 nM | 50 to 500 nM | 50 to 500 nM
COc1cc(N2CCC(N3CCN(C)CC3)CC2)c(CC2CC2)cc1Nc1ncc(Br)c(Nc2ccc3nccnc3c2N(C)S(=O)(=O)C2CC2)n1 [Compound I-220] |  |  |  |  |  |  | 50 to 500 nM | 50 to 500 nM | ≤ 50 nM | 50 to 500 nM | 50 to 500 nM | ≤ 50 nM
CCc1cc(Nc2ncc(Br)c(Nc3ccc4nccnc4c3N(C)S(C)(=O)=O)n2)c(OC)cc1N1CCC(N(C)C)CC1 [Compound I-16] |  |  |  |  |  |  | ≤ 50 nM | ≤ 50 nM | ≤ 50 nM | ≤ 50 nM | ≤ 50 nM | ≤ 50 nM
COc1cc(N2CCN(C)CC2)c(C)cc1Nc1nc(Nc2ccc3nccnc3c2N(C)S(C)(=O)=O)c2[nH]ccc2n1 [II-1-33] | 500 to 2500 nM | 500 to 2500 nM | 500 to 2500 nM | 500 to 2500 nM | 500 to 2500 nM | 500 to 2500 nM |  |  |  |  |  | 
COc1cc(N2CCC(N3CCN(C)CC3)CC2)c(C)cc1Nc1ncc(Br)c(Nc2ccc3nccnc3c2N(C)S(C)(=O)=O)n1 [Compound I-2] |  |  |  |  |  |  | ≤ 50 nM | ≤ 50 nM | ≤ 50 nM | ≤ 50 nM | ≤ 50 nM | ≤ 50 nM
CCc1cc(Nc2ncc(Cl)c(Nc3ccc4nccnc4c3N(CC)S(C)(=O)=O)n2)c(OC)nc1N1CCC(N2CCN(C)CC2)CC1 [Compound I-227] |  |  |  |  |  |  | ≤ 50 nM | ≤ 50 nM | ≤ 50 nM | 50 to 500 nM | ≤ 50 nM | ≤ 50 nM
COc1cc(N2CCC(N(C)C)CC2)c(C)cc1Nc1nc(Nc2ccc3nccnc3c2N(C)S(C)(=O)=O)c2sccc2n1 [II-1-13] | 50 to 500 nM | 50 to 500 nM | ≤ 50 nM | 500 to 2500 nM | 500 to 2500 nM | 50 to 500 nM |  |  |  |  |  | 
COc1cc(N2CCC(N3CCN(C)CC3)CC2)c(CC2CC2)cc1Nc1ncc([N+](=O)[O-])c(Nc2ccc3nccnc3c2N(C)S(C)(=O)=O)n1 [Compound I-191] |  |  |  |  |  |  | 50 to 500 nM | 50 to 500 nM | ≤ 50 nM | 50 to 500 nM | 50 to 500 nM | 50 to 500 nM
CN1CCN(C2CCN(c3ccc(Nc4ncc(Br)c(Nc5ccc6nccnc6c5N(C)S(C)(=O)=O)n4)c(F)c3F)CC2)CC1 [Compound I-353] | ≤ 50 nM | ≤ 50 nM | ≤ 50 nM | 50 to 500 nM | ≤ 50 nM | ≤ 50 nM |  |  |  |  |  | 
CCc1cc(Nc2nc(Nc3ccc4nccnc4c3N(C)S(C)(=O)=O)c3cc[nH]c3n2)c(OC)cc1N1CCC(N(C)C)C1 (stereo not drawn) [II-2-17] | 50 to 500 nM | 50 to 500 nM | ≤ 50 nM | 500 to 2500 nM | 500 to 2500 nM | 50 to 500 nM |  |  |  |  |  | 
COc1cc(N2CCC(N(C)C)CC2)c(C)cc1Nc1ncc(Cl)c(Nc2ccc3nccnc3c2N(C2CC2)S(C)(=O)=O)n1 [Compound I-243] |  |  |  |  |  |  | ≤ 50 nM | ≤ 50 nM | 50 to 500 nM | ≤ 50 nM | ≤ 50 nM | 50 to 500 nM
COc1ccc(N2CCC(O)CC2)cc1Nc1ncc(Cl)c(Nc2ccc3nccnc3c2N(C2CC2)S(C)(=O)=O)n1 [Compound I-379] | ≤ 50 nM | ≤ 50 nM | ≤ 50 nM | ≤ 50 nM | ≤ 50 nM | ≤ 50 nM |  |  |  |  |  | 
CCc1cc(Nc2ncc(Cl)c(Nc3ccc4nccnc4c3N(CC)S(C)(=O)=O)n2)c(OC)cc1N1CCC(N(C)C)C1 (stereo not drawn) [Compound I-113] |  |  |  |  |  |  | ≤ 50 nM | ≤ 50 nM | ≤ 50 nM | 50 to 500 nM | ≤ 50 nM | ≤ 50 nM
COc1cc(N2CCC(N3CCN(C)CC3)CC2)c(C)cc1Nc1ncc(OC)c(Nc2ccc3nccnc3c2N(C)S(C)(=O)=O)n1 [Compound I-332] | ≤ 50 nM | ≤ 50 nM | ≤ 50 nM | ≤ 50 nM | ≤ 50 nM | ≤ 50 nM |  |  |  |  |  | 
CCN(c1c(Nc2nc(Nc3cc(N4CCC(O)CC4)ccc3OC)ncc2Cl)ccc2nccnc12)S(C)(=O)=O [Compound I-377] | ≤ 50 nM | ≤ 50 nM | ≤ 50 nM | ≤ 50 nM | ≤ 50 nM | ≤ 50 nM |  |  |  |  |  | 
CCc1cc(Nc2nc(Nc3ccc4nccnc4c3N(C)S(C)(=O)=O)c3occc3n2)c(OC)cc1N1CCC(N2CCN(C)CC2)CC1 [II-1-26] | ≤ 50 nM | ≤ 50 nM | ≤ 50 nM | 50 to 500 nM | 50 to 500 nM | ≤ 50 nM |  |  |  |  |  | 
CCc1cc(Nc2ncc(C)c(Nc3ccc4nccnc4c3N(C)S(C)(=O)=O)n2)c(OC)cc1N1CCC(N2CCN(C)CC2)CC1 [Compound I-277] |  |  |  |  |  |  | ≤ 50 nM | ≤ 50 nM | ≤ 50 nM | ≤ 50 nM | ≤ 50 nM | ≤ 50 nM
CCc1cc(Nc2ncc(OC)c(Nc3ccc4nccnc4c3N(C)S(C)(=O)=O)n2)c(OC)nc1N1CCC(N2CCN(C)CC2)CC1 [Compound I-334] | ≤ 50 nM | ≤ 50 nM | ≤ 50 nM | ≤ 50 nM | ≤ 50 nM | ≤ 50 nM |  |  |  |  |  | 
COc1cc(N2CCC(N3CCN(C)CC3)CC2)c(C)cc1Nc1nc(Nc2ccc3nccnc3c2N(C)S(C)(=O)=O)c2occc2n1 [II-1-25] | 50 to 500 nM | 50 to 500 nM | ≤ 50 nM | 50 to 500 nM | 50 to 500 nM | 50 to 500 nM |  |  |  |  |  | 
